Usually LD50 stands for the dose expected to kill half of the subjects tested. A higher LD50 goes with a less toxic substance.

The source of these data is EP0146338A2, “A blood accelerator 2, 3-diphosphoglyceric acid” (SHIRATORI PHARMACEUTICAL CO. LTD., priority 1983, dated 1985).

For series [1], the system named is human ACD (acid chitorate dextrose) preserved blood. Put plainly: 2,3-DPG level after addition of naphthoquinone to preserved blood (Keitt's method). It counts as cell-based. Particulars: for Blood level of 2,3-DPG: One hundred PM naphthoquinone in 1 ml human ACD preserved blood, 60 min at 37°C, control 294; for Concentrations of 2,3-DPG: preserved blood, mean ± standard error, n=30.

A short description of a further series: Toxicity (LD50), mouse. Particulars: in vivo.
The test system of series [2] is fresh blood taken from a patient with an ischemic disease. Put plainly: 2,3-DPG level after addition of vitamin K3 to fresh blood of patients with an ischemic disease. In kind it is cell-based, human. Conditions: 100 µM. As to the method: One hundred PM of each naphthoquinone (use 10 mM naphthoquinone dissolved in 50 % ethanol solution) was added to 1 ml of human ACD (acid chitorate dextrose) preserved blood (of which 2,3-DPG concentration had decreased to 1/20 of the normal level). After incubation for 60 min at 37°C, the reaction was stopped by addition of perchloric acid. According to Keitt's method (J. Lab. Clin. Med. 77, 470-475 (1971)), thereafter, 2,3-DPG was extracted and quantified.
One hundred µM of vitamin K3 was added in 1 ml of fresh blood taken from a patient with an ischemic disease, and the concentration of 2,3-DPG was determined in the same manner as in Example 1.

A further series is described as follows: Toxicity (LD50), rat. Conditions: in vivo, po.

As for `O=C1C(Cl)=C(Cl)C(=O)c2ccccc21` [2,3-Dichloro-1,4-naphthoquinone, 2,3-dichloro-1,4-naphthoquinone], the “Blood level of 2,3-DPG” value in series [1] was 3971 n moles/ml RBC.

Regarding `CC1=CC(=O)c2ccccc2C1=O` [Vitamin K3, 2-methyl-l,4-naphthoqunone], in “Toxicity (LD50), mouse” (po), the LD50 is 500 mg/kg. For the same molecule, the “blood levels of 2,3-DPG in the patients with ischemic diseases (in words)” value in series [2] (normal subjects 4931± 53) is “recovered to the normal level or higher levels”. For the same molecule, the “Concentrations of 2,3-DPG” value in series [2] (Buerger's Disease, n=12, no addition 4253±287) is 5490±117(12) n moles/ml RBC; in series [2] (Closed arteriosclerosis, n=15, no addition 4796±365), 5624±266(15) n moles/ml RBC; in series [1] (dose 10 µM, dose 0: 227 ± 15) it was 1124 ± 107 (30) n moles/ml RBC; in series [1] (dose 100 µM), 3256 ± 244 (30) n moles/ml RBC; in series [1] (dose 1000 µM), 5144 ± 253 (30) n moles/ml RBC; in series [1] (dose 10000 µM) it was 5569 ± 311 (30) n moles/ml RBC. Also, the “Blood level of 2,3-DPG” value in series [1] is on record as 3660 n moles/ml RBC.

As to `O=C1C=CC(=O)c2ccccc21` [1,4-Naphthoquinone, 1,4-naphthoquinone], the 50% lethal dose (LD50) in “Toxicity (LD50), rat” amounted to 190 mg/kg. In addition, the “Blood level of 2,3-DPG” value in series [1] is 3554 n moles/ml RBC.

Consider `O=C1C=C(S(=O)(=O)O)c2ccccc2C1=O` [1,2-Naphthoquinone-4-sulfonic acid, 1,2-naphthoquinone-4-sulfonic acid], for which the 50% lethal dose (LD50) in the series “Toxicity (LD50), mouse” (ip) was 625 mg/kg. Also, the “Blood level of 2,3-DPG” value in series [1] was 3923 n moles/ml RBC.
